Consider 9 molecules from PubChem BioAssay (NCI).

Test systems include 786-0 renal; A498 renal; EKVX NSCLC; HL-60(TB) leukemia; NCI-H226 lung; RXF 393 renal; SF-295 CNS; SK-MEL-2 melanoma; SR leukemia; UO-31 renal.
Holding throughout (assay): DTP human tumour cell line panel, 48 h

“And” between values parts separate entries of the source, which are not always exact repeats. Equal values may be shown once.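 Following 48 hours of exposure in 96-well plates, responses at five concentrations were used to interpolate endpoints linearly. GI50 = concentration required for 50% inhibition of growth. TGI: total growth inhibition.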 A value given as a limit tells only on which side of the number the result lay.

As to `c1ccc(-c2nnc(Nc3ccc4c(c3)OCCO4)o2)c(NCc2ccncc2)c1`, the GI50 (usually the concentration at which growth is held to half of that of the control) with 786-0 renal is 0.0756 µM; in the assay with A498 renal it was 0.0226 µM; in the assay on EKVX NSCLC it was 0.105 µM; with HL-60(TB) leukemia, 0.0236 µM; with NCI-H226 lung, 0.0264 µM; in the assay on RXF 393 renal, less than 0.01 µM. The GI50 with SF-295 CNS is 0.0136 µM; in the assay on SK-MEL-2 melanoma, 0.16 µM; in the assay with SR leukemia it was less than 0.01 µM; in the assay with UO-31 renal it was 0.22 µM. Also, the TGI – broadly, the concentration at which net growth stops – in the assay on 786-0 renal is more than 100 µM; in the assay on A498 renal it was 0.533 µM; with EKVX NSCLC, more than 100 µM; with HL-60(TB) leukemia, 0.722 µM; in the assay with NCI-H226 lung, 0.106 µM; in the assay on RXF 393 renal, 0.0421 µM. For the same molecule, the TGI was more than 100 µM in the assay with SF-295 CNS, 22.3 µM with SK-MEL-2 melanoma, more than 46.5 µM with SR leukemia and 26.3 µM with UO-31 renal.

Consider `CN(C)CCNC(=O)Cn1ccc(=O)c2ccc([N+](=O)[O-])cc21`, for which the TGI in the assay on 786-0 renal, with A498 renal, in the assay with EKVX NSCLC, with HL-60(TB) leukemia, in the assay on NCI-H226 lung and with RXF 393 renal was more than 100 µM each time. Besides, the TGI with SF-295 CNS, with SK-MEL-2 melanoma, in the assay on SR leukemia and in the assay on UO-31 renal was more than 100 µM each time.

`C/C(=N\NC(=O)c1ccccc1O)c1cccc(/C(C)=N/NC(=O)c2ccccc2O)n1`: the GI50 with 786-0 renal was 0.616 µM; in the assay with A498 renal, 2.42 µM; in the assay on EKVX NSCLC, 0.317 µM; with HL-60(TB) leukemia it was 0.784 µM and 0.504 µM; in the assay on NCI-H226 lung it was 5.8 µM and 3.79 µM; in the assay on RXF 393 renal, 5.38 µM. The GI50 in the assay on SF-295 CNS is 0.33 µM. Further, the TGI with 786-0 renal is 45.6 µM and 18.4 µM; in the assay with A498 renal, > 100 µM and 16.7 µM; in the assay with EKVX NSCLC it was more than 100 µM; in the assay on NCI-H226 lung it was more than 100 µM; with RXF 393 renal, 32.5 µM and 30.6 µM; in the assay with SF-295 CNS, 59.1 µM and > 36.1 µM. Further, the TGI in the assay on SK-MEL-2 melanoma was 38.9 µM and > 100 µM; in the assay with SR leukemia it was more than 100 µM; in the assay on UO-31 renal, 52.5 µM and > 57.4 µM.

Take `C/C1=C\C/C=C(\C)[C@H]2CC(CC/C(C)=C/CC1)[C@@](C)(CO)O2`: the GI50 with 786-0 renal was more than 100 µM; in the assay on A498 renal, 54.1 µM; in the assay with EKVX NSCLC, more than 100 µM; in the assay with HL-60(TB) leukemia, 16.8 µM; in the assay with NCI-H226 lung, more than 100 µM; with RXF 393 renal, more than 100 µM. The GI50 in the assay on SF-295 CNS is 59.3 µM; in the assay on SK-MEL-2 melanoma, 44.9 µM; in the assay with SR leukemia, 14.6 µM; with UO-31 renal, 21.7 µM. Moreover, the TGI was more than 100 µM in the assay on 786-0 renal; more than 100 µM in the assay on A498 renal; more than 100 µM in the assay on EKVX NSCLC; 51.1 µM in the assay with HL-60(TB) leukemia; more than 100 µM in the assay on NCI-H226 lung; more than 100 µM in the assay on RXF 393 renal. The TGI in the assay with SF-295 CNS was more than 100 µM; with SK-MEL-2 melanoma, more than 100 µM; in the assay on SR leukemia, 43.8 µM; in the assay with UO-31 renal, 89.9 µM.

Take `Nc1ncnc2c(C3OC(CO)C(O)C3O)[nH]nc12` (stereo not given): the GI50 in the assay on 786-0 renal was 0.0544 µM; in the assay on A498 renal it was 0.203 µM; with EKVX NSCLC, 1.6 µM; in the assay on HL-60(TB) leukemia, 0.0142 µM; with NCI-H226 lung, 0.529 µM and 0.793 µM; with SF-295 CNS it was 0.231 µM. For the same molecule, the GI50 is 0.0507 µM with SK-MEL-2 melanoma, 0.0347 µM in the assay on SR leukemia and 0.0619 µM in the assay on UO-31 renal. In addition, the TGI with 786-0 renal was 5.65 µM; in the assay with A498 renal it was 3.98 µM and 4.78 µM; in the assay with HL-60(TB) leukemia, 0.111 µM; in the assay on NCI-H226 lung, 5.83 µM and 10.7 µM; in the assay with RXF 393 renal, 2.92 µM and 1.88 µM; in the assay with SF-295 CNS, 1.1 µM and 10.1 µM. Also, the TGI in the assay with SK-MEL-2 melanoma is 0.739 µM and 0.5 µM.

For the molecule `S=C=NCc1ccccc1`, the TGI came to 1.65 µM with 786-0 renal; 14 µM in the assay on A498 renal; 28.4 µM in the assay on EKVX NSCLC; 3.95 µM in the assay with HL-60(TB) leukemia; 15 µM in the assay on NCI-H226 lung; 3.18 µM in the assay with RXF 393 renal. Also, the total growth inhibition concentration (TGI) is 19.4 µM with SF-295 CNS, more than 59 µM in the assay with SK-MEL-2 melanoma, 12.1 µM in the assay on SR leukemia and 6.74 µM with UO-31 renal.

`CCN(CC)CCCOc1cc(O)c2c(=O)cc(-c3ccccc3)oc2c1`: the GI50 in the assay with 786-0 renal is 11.3 µM; with A498 renal it was 10.2 µM; with EKVX NSCLC, 13.2 µM; in the assay on HL-60(TB) leukemia it was 3.98 µM; with NCI-H226 lung, 13.6 µM; in the assay with RXF 393 renal it was 11.6 µM. In addition, the GI50 with SF-295 CNS was 11.9 µM; in the assay on SK-MEL-2 melanoma, 10.1 µM; with SR leukemia, 3.44 µM; with UO-31 renal it was 3.74 µM. Also, the total growth inhibition concentration (TGI) in the assay with 786-0 renal was 24.1 µM; in the assay on A498 renal, 22.4 µM; in the assay with EKVX NSCLC, 26.4 µM; in the assay on HL-60(TB) leukemia it was 15.3 µM; in the assay with NCI-H226 lung it was 29.7 µM; with RXF 393 renal, 28.8 µM. In addition, the TGI in the assay on SF-295 CNS was 28.1 µM; in the assay with SK-MEL-2 melanoma it was 27 µM; in the assay on SR leukemia it was 9.39 µM; in the assay on UO-31 renal, 15.9 µM.

In the case of `Cc1cc2c3ccccc3ccc2[n+]2ccccc12`, the GI50 in the assay with 786-0 renal is 6.11 µM; with A498 renal, 5.43 µM; in the assay with EKVX NSCLC, 1.22 µM; in the assay with HL-60(TB) leukemia, 14.3 µM; in the assay with NCI-H226 lung, 3.14 µM; in the assay on RXF 393 renal, 14.3 µM. For the same molecule, the GI50 in the assay on SF-295 CNS was 2.29 µM; with SK-MEL-2 melanoma, 6.26 µM; in the assay on SR leukemia, 2.25 µM; in the assay on UO-31 renal, 3.73 µM. The TGI with 786-0 renal was more than 69.1 µM; in the assay with A498 renal, more than 100 µM; with EKVX NSCLC, more than 33.4 µM; with HL-60(TB) leukemia it was 46.3 µM; with NCI-H226 lung, 23.7 µM; in the assay on RXF 393 renal, more than 84.4 µM. The TGI with SF-295 CNS is 12.7 µM; in the assay with SK-MEL-2 melanoma it was 22.7 µM; in the assay on SR leukemia it was 12.9 µM; with UO-31 renal, more than 100 µM.

With `CC1(C)CC(=O)c2c(ccc(C(=O)C[C@H](N)CO)c2N)O1`, the GI50 with 786-0 renal was > 17.5 µM and 5.1 µM; in the assay with A498 renal, 2.86 µM and 6.73 µM; with EKVX NSCLC, more than 33.3 µM; in the assay on HL-60(TB) leukemia, 8.45 µM and 6.34 µM; in the assay with RXF 393 renal, 4.45 µM and 5.14 µM; in the assay on SF-295 CNS, 5.66 µM and 3.65 µM. The GI50 in the assay with SK-MEL-2 melanoma was 12.5 µM and 5.2 µM; in the assay with SR leukemia, 0.612 µM and 0.0752 µM; with UO-31 renal it was 1.73 µM and 0.409 µM. The TGI with 786-0 renal was more than 33.3 µM; in the assay on A498 renal it was 17.5 µM and > 33.3 µM; in the assay with EKVX NSCLC it was more than 33.3 µM; in the assay with HL-60(TB) leukemia, 17.5 µM and > 33.3 µM; in the assay on NCI-H226 lung, 17.5 µM and 23.7 µM; in the assay with RXF 393 renal, 17.5 µM and > 33.3 µM. For the same molecule, the TGI with SF-295 CNS was 17.5 µM and > 33.3 µM; in the assay with SK-MEL-2 melanoma, 17.5 µM and > 33.3 µM; in the assay with UO-31 renal, 17.5 µM and > 33.3 µM.
